From patent US12599614B2, “Methods and pharmaceutical compositions for the treatment and prophylaxis of microbial infectious diseases and associated inflammatory disorders and for the treatment and prophylaxis of aging and associated diseases” (MD VAULT LLC, priority 2020, dated 2026)

Tests used:
2-year-old aged mice = experiment: Senescence biomarkers in tissues of aged mice; type: in vivo; details: aged liver, muscle and skin tissues; ip 20 mg/kg X and/or 4 mg/kg Y daily for 30 days; vs DMSO vehicle; P<0.01
Experimental: To test if the drugs X and Y may reduce senescence in the tissues of aged mice, we intraperitoneally injected 2-year-old aged mice (n=10/group) with 20 mg/kg of X, or 4 mg/kg of Y, or both 20 mg/kg of X and 4 mg/kg of Y, relative to the DMSO vehicle control, on a daily basis for 30 days. Staining of liver, muscle and skin tissue sections for SA-β-gal activity was performed using the Senescence β-Galactosidase Staining Kit (Cell Signaling Technology) according to manufacturer's protocols. Protein expression of p16INK4A and H3K9me3 were evaluated by densitometric quantification of Westem blots of the liver, muscle and skin tissue samples.

[1] = system: primary human skeletal muscle cells; experiment: Metabolism and gene pathway profiling of muscle cells; type: cell-based; details: single agent: X alone 100 mg/L or Y alone 2 mg/L
Experimental: Calorie restriction is known to ameliorate the effects of aging, by altering cellular bioenergetic stress and promoting mitochondrial activity, the unfolded protein response (UPR), the secretion of beneficial cytokines, and an increase in stem cell regeneration. To test how the drug combination X and Y mimics the effects of calorie restriction (CR), we profiled the metabolism of primary human skeletal muscle cells at passage 15 treated with X (100 mg/L) and Y (2 mg/L), compared to X alone (100 mg/L) or Y alone (2 mg/L).

[2] = system: 1 year-old aged diabetic mice; experiment: Tissue regeneration in 1 year-old aged diabetic mice, oral gavage; type: in vivo; details: single agent: X alone 20 mg/kg or Y alone 4 mg/kg, daily oral gavage, 6 weeks
[3] = system: 1 year-old aged mice treated with intratracheal bleomycin; experiment: Bleomycin lung fibrosis in aged mice (COPD/IPF model); type: in vivo; details: daily oral gavage over 3 weeks; intratracheal bleomycin 3 mg/kg
Experimental: Daily oral gavage of the drug combination X and Y, relative to X alone or Y alone or the vehicle over 3 weeks, led to decreases in aging-associated lung fibrosis in 1 year-old aged mice treated with intratracheal bleomycin (3 mg/kg in 50 ul phosphate buffered saline or PBS) to model chronic obstructive pulmonary disease (COPD) and idiopathic pulmonary fibrosis (IPF).

[4] = system: adult female rats (PCOS model); experiment: Estrus cycles in DHEA/diet PCOS rat model; type: in vivo; details: daily oral gavage over 6 weeks; DHEA 60 mg/kg sc and high fat-high sugar-high cholesterol diet
Experimental: Daily oral gavage of the drug combination X and Y, relative to X alone or Y alone or the vehicle over 6 weeks, led to restoration of estrus cycles in adult female rats treated with subcutaneous dehydroepiandrosterone (DHEA; 60 mg/kg body weight) and fed with a high fat-high sugar-high cholesterol diet ad libitum to model premature ovarian aging in polycystic ovary syndrome (PCOS).

Compound	SA-β-gal activity staining (senescence biomarker) (2-year-old aged mice)	beneficial anti-aging effects seen with X and Y (ATP, acetyl-CoA, acetylation, Pink1, mitochondrial protein and DNA, UPR, ROS, cytokine and stem cell pathways) [1]	beneficial anti-aging effects seen with X and Y (liver, β islet, hair, wound, muscle regeneration, body mass) [2]	lung fibrosis (% fibrotic area, Masson trichrome staining, ImageJ) [3]	estrus cycles (vaginal smear analysis) [4]
COc1ccc(CN2CCNCC2)c(OC)c1OC [Y, 1-[(2,3,4-trimethoxyphenyl)methyl]piperazine]	but not X alone or Y alone	None of these beneficial anti-aging effects were observed	None of these beneficial anti-aging effects were observed	None of these beneficial anti-aging effects were observed	all of the rats were frozen in either the estrus or proestrus stages
CC(=O)Oc1ccccc1C(=O)O [X, 2-acetoxybenzoic acid]	but not X alone or Y alone	None of these beneficial anti-aging effects were observed	None of these beneficial anti-aging effects were observed	None of these beneficial anti-aging effects were observed	all of the rats were frozen in either the estrus or proestrus stages
